Data reported in ChEMBL document CHEMBL5357075, “Innovative Therapeutic Strategies in TYK2-Targeted Treatments: From Cancer to Autoimmune Disorders” (ACS Med Chem Lett, 2024).

Assays:
[1] = biological target: T1, Non-receptor tyrosine-protein kinase TYK2 (Homo sapiens, UniProt P29597); assay: Inhibition of TYK2 in HEK-Blue IL-23 cells pretreated for 60 mins followed by IL-23 stimulation for 22 to 24 hrs by Quanti-Blue based SEAP assay; assay type: cell-based
[2] = biological target: T1, Non-receptor tyrosine-protein kinase TYK2; assay: Inhibition of TYK2 in HEK-Blue alpha/beta cells pretreated for 60 mins followed by IFN-alpha stimulation for 16 to 18 hrs by Quanti-Blue based SEAP assay; assay type: cell-based

T1 sequence (P29597 whole entry): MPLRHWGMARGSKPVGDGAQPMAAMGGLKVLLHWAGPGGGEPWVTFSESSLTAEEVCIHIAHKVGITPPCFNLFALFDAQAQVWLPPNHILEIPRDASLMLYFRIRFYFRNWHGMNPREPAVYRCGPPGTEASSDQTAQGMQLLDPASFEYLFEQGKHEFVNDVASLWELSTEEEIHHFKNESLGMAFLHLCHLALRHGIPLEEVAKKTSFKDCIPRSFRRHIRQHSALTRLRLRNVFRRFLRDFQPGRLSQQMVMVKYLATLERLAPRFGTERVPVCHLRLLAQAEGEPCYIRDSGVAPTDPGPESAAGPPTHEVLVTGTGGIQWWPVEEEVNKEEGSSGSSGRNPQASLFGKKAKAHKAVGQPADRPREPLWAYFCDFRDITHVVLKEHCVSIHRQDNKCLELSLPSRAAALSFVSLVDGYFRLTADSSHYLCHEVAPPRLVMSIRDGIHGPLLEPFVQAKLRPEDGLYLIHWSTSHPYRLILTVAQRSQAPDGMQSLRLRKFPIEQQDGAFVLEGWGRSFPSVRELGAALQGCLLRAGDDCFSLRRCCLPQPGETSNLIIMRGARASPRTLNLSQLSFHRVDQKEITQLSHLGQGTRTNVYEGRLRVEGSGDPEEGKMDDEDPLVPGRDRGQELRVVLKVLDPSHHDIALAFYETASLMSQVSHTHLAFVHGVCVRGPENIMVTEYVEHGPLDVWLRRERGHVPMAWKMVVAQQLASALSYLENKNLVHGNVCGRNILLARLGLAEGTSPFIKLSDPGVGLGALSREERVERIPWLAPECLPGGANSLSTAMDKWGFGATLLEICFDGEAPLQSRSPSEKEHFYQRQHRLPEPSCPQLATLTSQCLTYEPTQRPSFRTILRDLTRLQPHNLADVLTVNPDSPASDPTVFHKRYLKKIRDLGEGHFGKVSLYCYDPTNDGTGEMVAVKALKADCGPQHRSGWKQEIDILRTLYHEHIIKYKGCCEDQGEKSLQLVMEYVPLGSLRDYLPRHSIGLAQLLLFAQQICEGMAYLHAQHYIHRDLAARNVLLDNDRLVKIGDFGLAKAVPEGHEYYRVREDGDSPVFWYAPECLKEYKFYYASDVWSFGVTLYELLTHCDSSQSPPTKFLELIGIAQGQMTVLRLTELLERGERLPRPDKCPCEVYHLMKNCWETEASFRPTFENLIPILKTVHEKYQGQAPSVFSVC

| IC50 [1] | IC50 [2] | SMILES |
| --- | --- | --- |
| < 30 nM | 30 nM | [2H]C([2H])([2H])CC(=O)c1cnc(NC(=O)C2CC2)cc1Nc1cccc2c1N(C)Cc1nc(C)nn1-2 |
| < 30 nM | < 30 nM | [2H]C([2H])([2H])CC(=O)c1cnc(NC(=O)C2CC2)cc1Nc1cccc2c1N(C)[C@@H](C)c1nn(C)nc1-2 |
| < 30 nM | 30 nM | [2H]C([2H])([2H])CC(=O)c1cnc(NC(=O)C2CC2)cc1Nc1nccc2c1N(C)Cc1nn(CC)nc1-2 |
